21 compounds from patent US9045445B2, “Glycine transporter-1 inhibitors, methods of making them, and uses thereof” (Albany Molecular Research, Inc., priority 2010, dated 2015) can be followed below.

Assay [1] has as its target T1, glycine transporter-2 (GlyT-2) (Homo sapiens, UniProt Q9Y345).
T1 construct: expressed in transfected cells
T1 sequence (Q9Y345 1-797): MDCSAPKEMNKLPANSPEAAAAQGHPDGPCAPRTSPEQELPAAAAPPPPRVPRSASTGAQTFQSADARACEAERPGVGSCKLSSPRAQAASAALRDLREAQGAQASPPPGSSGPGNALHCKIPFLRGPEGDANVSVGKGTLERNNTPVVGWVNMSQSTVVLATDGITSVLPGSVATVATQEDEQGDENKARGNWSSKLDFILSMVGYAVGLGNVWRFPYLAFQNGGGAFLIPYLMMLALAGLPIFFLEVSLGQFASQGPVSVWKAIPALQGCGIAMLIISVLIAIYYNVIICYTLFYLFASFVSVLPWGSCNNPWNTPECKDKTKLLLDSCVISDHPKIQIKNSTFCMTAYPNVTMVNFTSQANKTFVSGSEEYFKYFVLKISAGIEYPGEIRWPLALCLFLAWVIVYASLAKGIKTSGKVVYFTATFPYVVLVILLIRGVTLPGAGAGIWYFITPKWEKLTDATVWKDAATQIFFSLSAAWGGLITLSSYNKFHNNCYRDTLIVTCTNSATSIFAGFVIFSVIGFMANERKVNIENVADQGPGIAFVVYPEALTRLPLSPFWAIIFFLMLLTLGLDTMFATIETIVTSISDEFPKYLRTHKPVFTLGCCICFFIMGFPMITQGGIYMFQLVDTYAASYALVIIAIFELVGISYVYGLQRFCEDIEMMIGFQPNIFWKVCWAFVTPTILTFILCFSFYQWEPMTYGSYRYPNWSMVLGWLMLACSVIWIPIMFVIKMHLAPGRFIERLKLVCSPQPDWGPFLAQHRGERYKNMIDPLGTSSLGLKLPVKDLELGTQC
As to the kind of experiment: [14C]glycine uptake assay in HEK-GlyT-2 transfected cells. In kind it is cell-based. The conditions noted are these: HEK-GlyT-2 cells.

The target in assay [2] is T2, glycine transporter-1 (GlyT-1) (Homo sapiens, UniProt P48067).
T2 construct: JAR cells (ATCC#HTB-144), which endogenously express GlyT-1; host or cells: JAR human choriocarcinoma cells
T2 sequence (P48067 1-706): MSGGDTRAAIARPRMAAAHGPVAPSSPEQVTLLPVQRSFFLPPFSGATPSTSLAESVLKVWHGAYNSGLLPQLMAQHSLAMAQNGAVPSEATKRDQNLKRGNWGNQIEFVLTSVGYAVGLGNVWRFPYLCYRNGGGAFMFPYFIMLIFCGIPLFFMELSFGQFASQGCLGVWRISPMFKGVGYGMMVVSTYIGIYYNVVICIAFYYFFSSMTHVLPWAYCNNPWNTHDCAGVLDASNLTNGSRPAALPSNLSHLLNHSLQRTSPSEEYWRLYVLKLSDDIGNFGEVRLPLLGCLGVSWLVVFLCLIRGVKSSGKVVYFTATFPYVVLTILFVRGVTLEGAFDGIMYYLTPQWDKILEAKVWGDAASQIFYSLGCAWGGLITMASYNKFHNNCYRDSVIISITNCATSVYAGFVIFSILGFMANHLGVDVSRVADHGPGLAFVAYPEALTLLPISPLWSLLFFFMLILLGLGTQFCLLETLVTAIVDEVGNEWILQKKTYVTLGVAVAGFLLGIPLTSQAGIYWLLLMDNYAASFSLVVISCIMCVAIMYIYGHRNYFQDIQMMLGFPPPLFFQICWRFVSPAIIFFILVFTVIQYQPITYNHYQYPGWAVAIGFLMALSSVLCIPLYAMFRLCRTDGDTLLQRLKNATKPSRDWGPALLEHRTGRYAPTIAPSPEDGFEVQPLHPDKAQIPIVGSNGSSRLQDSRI
The experiment in a line: [14C]glycine uptake assay in JAR cells endogenously expressing GlyT-1 (scintillation proximity). In kind it is cell-based. The conditions noted are these: JAR cells, [14C]glycine 5 μM, 3 hour incubation; read-out: GlyT-1 IC50. The method, boiled down:
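Human choriocarcinoma JAR cells (endogenous GlyT-1) attached overnight, then pre-incubated 10 min at room temperature with compound in pH 7.4 Hepes uptake buffer containing 5 mM alanine and 0.75% DMSO. Uptake of 5 μM [14C]glycine over 3 h at 37 °C read by scintillation proximity; IC50 from four-parameter fit of nine-point curves.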

pIC50: −log10 of the molar value. Where a name gives a salt, the structure may show the parent alone.

For the compound `CCCS(=O)(=O)N1CCN(C2(CNC(=O)c3c(N)cccc3Cl)CCCC2)CC1` [compound 77, 2-Amino-6-chloro-N-((1-(4-(propylsulfonyl)piperazin-1-yl)cyclopentyl)methyl) benzamide Hydrochloride], the pIC50 (as a rule, the IC50 on a negative log10 scale, so that one unit is a factor of ten) is < 4.52 in assay [1] and 6.74 in assay [2].

As for `CC(C)CS(=O)(=O)N1CCN(C2(CNC(=O)c3c(N)cccc3Cl)CCCCC2)CC1` [compound 92, 2-Amino-6-chloro-N-((1-(4-(isobutylsulfonyl)piperazin-1-yl)cyclohexyl)methyl) benzamide Hydrochloride], the negative logarithm of the IC50 (pIC50) in assay [1] is 4.26; in assay [2] it was 6.02.

On to `CCCS(=O)(=O)N1CCN(C2(CNC(=O)c3c(F)cccc3OC)CCCCC2)CC1` [compound 44, 2-Fluoro-6-methoxy-N-((1-(4-(propyl-sulfonyl)piperazin-1-yl)cyclohexyl)methyl) benzamide Hydrochloride], for which the figures for the pIC50 in assay [1] and in assay [2] were < 4.12 and 7.77, respectively.

In the case of `CCCS(=O)(=O)N1CCN(C2(CNC(=O)c3ccc(C)cc3C)CCCCC2)CC1` [compound 30, 2,4-Dimethyl-N-((1-(4-(propylsulfonyl)piperazin-1-yl)cyclohexyl)methyl) benzamide Hydrochloride], the pIC50 in assay [1] was < 4.12; in assay [2] it was 7.10.

Turning to `Cn1cnc(S(=O)(=O)N2CCN(C3(CNC(=O)c4c(F)cccc4F)CCCC3)CC2)c1` [compound 104, 2,6-Difluoro-N-((1-(4-(1-methyl-1H-imidazol-4-ylsulfonyl)piperazin-1-yl)cyclopentyl)methyl) benzamide Hydrochloride], the pIC50 in assay [1] is < 4.12; in assay [2], 6.46.

For the compound `CCCS(=O)(=O)N1CCN(C2(CNC(=O)c3c(F)cc(Cl)cc3F)CCCCCC2)CC1` [compound 51, 4-Chloro-2,6-difluoro-N-((1-(4-propylsulfonyl)piperazin-1-yl)cycloheptyl)methyl) benzamide Hydrochloride], the pIC50 in assay [1] was < 4.12; in assay [2] it was 7.89.

As to `Cn1cc(S(=O)(=O)N2CCN(C3(CNC(=O)c4c(F)cccc4F)CCCC3)CC2)nn1` [compound 108, 2,6-Difluoro-N-((1-(4-(1-methyl-1H-1,2,3-triazol-4-ylsulfonyl)piperazin-1-yl)cyclopentyl)methyl) benzamide Hydrochloride], the negative-log IC50 (pIC50) in assay [1] is < 4.12; in assay [2], 7.26.

`O=C(NCC1(N2CCN(S(=O)(=O)c3cn(C(F)F)nn3)CC2)CCC(F)(F)CC1)c1ccc(C(F)(F)F)cc1Cl` [compound 236, 2-Chloro-N-((1-(4-(1-(difluoromethyl)-1H-1,2,3-triazol-4-ylsulfonyl)piperazin-1-yl)-4,4-difluorocyclohexyl)methyl)-4-(trifluoromethyl) benzamide Hydrochloride]: the pIC50 in assay [1] was < 4.12; in assay [2], 7.39.

Consider `CCCS(=O)(=O)N1CCN(C2(CNC(=O)c3c(C)cc(F)cc3OC)CCCC2)CC1` [compound 75, 4-Fluoro-2-methoxy-6-methyl-N-((1-(4-(propylsulfonyl)piperazin-1-yl)cyclopentyl)methyl) benzamide Hydrochloride], for which the negative-log IC50 (pIC50) in assay [1] is < 4.12; in assay [2] it was 6.57.

Regarding `CCCS(=O)(=O)N1CCN(C2(CNC(=O)c3c(C)cc(F)cc3OC)CCCCCC2)CC1` [compound 69, 4-Fluoro-2-methoxy-6-methyl-N-((1-(4-(propylsulfonyl)piperazin-1-yl)cycloheptyl)methyl) benzamide Hydrochloride], the pIC50 in assay [1] was < 4.12; in assay [2], 8.40.

On to `CCCS(=O)(=O)N1CCN(C2(CNC(=O)c3ccc(F)cc3)CCCCC2)CC1` [compound 15, 4-Fluoro-N-((1-(4-(propylsulfonyl)piperazin-1-yl)cyclohexyl)methyl) benzamide Hydrochloride], for which the pIC50 in assay [1] was < 4.12; in assay [2], 6.10.

For the compound `CCCS(=O)(=O)N1CCN(C2(CNC(=O)c3c(Cl)cccc3Cl)CCOCC2)CC1` [compound 119, 2,6-Dichloro-N-((4-(4-(propylsulfonyl)piperazin-1-yl)tetrahydro-2H-pyran-4-yl)methyl)benzamide Hydrochloride], the negative-log IC50 (pIC50) in assay [1] is < 4.35; in assay [2], 6.56.

As for `Cn1cnc(S(=O)(=O)N2CCN(C3(CNC(=O)c4ccc(F)cc4F)CCCCC3)CC2)c1` [compound 100, 2,4-Difluoro-N-((1-(4-(1-methyl-1H-imidazol-4-ylsulfonyl)piperazin-1-yl)cyclohexyl)methyl) benzamide Hydrochloride], the pIC50 in assay [1] is < 4.12; in assay [2], 7.52.

Turning to `CCCS(=O)(=O)N1CCN(C2(CNC(=O)c3c(Cl)cccc3Cl)CCCCCC2)CC1` [compound 64, 2,6-Dichloro-N-((1-(4-(propylsulfonyl)piperazin-1-yl)cycloheptyl)methyl) benzamide Hydrochloride], the pIC50 was < 4.12 in assay [1] and 7.96 in assay [2].

Consider `Cc1cccc(C)c1C(=O)NCC1(N2CCN(S(=O)(=O)c3cn(C)cn3)CC2)CCCCC1` [compound 95, 2,6-Dimethyl-N-((1-(4-(1-methyl-1H-imidazol-4-ylsulfonyl)piperazin-1-yl)cyclohexyl)methyl) benzamide Hydrochloride], for which the negative logarithm of the IC50 (pIC50) in assay [1] is < 4.12; in assay [2], 9.00.

In the case of `Cn1cnc(S(=O)(=O)N2CCN(C3(CNC(=O)c4ccccc4C(F)(F)F)CCC(F)(F)CC3)CC2)c1` [compound 176, N-((4,4-Difluoro-1-(4-(1-methyl-1H-imidazol-4-ylsulfonyl)piperazin-1-yl)cyclohexyl)methyl)-2-(trifluoromethyl)benzamide Hydrochloride], the negative-log IC50 (pIC50) was 4.16 in assay [1] and 8.52 in assay [2].

Regarding `CCCS(=O)(=O)N1CCN(C2(CNC(=O)c3c(N)cccc3Cl)CCN(C)CC2)CC1` [compound 116, 2-Amino-6-chloro-N-((1-methyl-4-(4-(propylsulfonyl)piperazin-1-yl)piperidin-4-yl)methyl)benzamide Hydrochloride], the values for the pIC50 in assay [1] and in assay [2] were < 4.12 and 6.30, respectively.

As for `CCCS(=O)(=O)N1CCN(C2(CNC(=O)c3c(OC)cc(C(F)(F)F)cc3C(F)(F)F)CCCCCC2)CC1` [compound 70, 2-Methoxy-N-((1-(4-(propylsulfonyl)piperazin-1-yl)cycloheptyl)methyl)-4,6-bis(trifluoromethyl) benzamide Hydrochloride], the negative logarithm of the IC50 (pIC50) in assay [1] was < 4.12; in assay [2], 8.05.

For `O=C(NCC1(N2CCN(S(=O)(=O)N3CCCC3)CC2)CCC(F)(F)CC1)c1ccc(C(F)(F)F)cc1Cl` [compound 270, 2-Chloro-N-((4,4-difluoro-1-(4-(pyrrolidin-1-ylsulfonyl)piperazin-1-yl)cyclohexyl)methyl)-4-(trifluoromethyl)benzamide Hydrochloride], the pIC50 in assay [1] is < 4.12; in assay [2], 7.33.

For the compound `CS(=O)(=O)N1CCN(C2(CNC(=O)c3c(N)cccc3Cl)CCCCC2)CC1` [compound 90, 2-Amino-6-chloro-N-((1-(4-(methylsulfonyl)piperazin-1-yl)cyclohexyl)methyl) benzamide Hydrochloride], the figures for the pIC50 in assay [1] and in assay [2] were < 4.12 and 6.47, respectively.

Consider `CCCS(=O)(=O)N1CCN(C2(CNC(=O)c3c(OC)cc(C(F)(F)F)cc3C(F)(F)F)CCCCC2)CC1` [compound 21, 2-Methoxy-N-((1(1-(4-(propylsulfonyl)piperazin-1-yl)cyclohexyl)methyl)-4,6-bis(trifluoromethyl)benzamide Hydrochloride], for which the negative-log IC50 (pIC50) was 4.41 in assay [1] and 8.40 in assay [2].
